# Experimental data taken from ChEMBL document CHEMBL5126592, “Design, synthesis and activity against drug-resistant bacteria evaluation of C-20, C-23 modified 5-O-mycaminosyltylonolide derivatives” (Eur J Med Chem, 2022).
# The source made the active and inactive calls. The rule behind the calls is not given here.
# Columns and labels:
# [1] = Genotoxicity in Salmonella typhimurium TA98 assessed as number of revertants at 2x10^-4 mg/plate incubated for 72 hrs in absence of liver S9 fraction by Ames test (reference value: 57.33 +/- 3.06); assay type: toxicity; conditions: salmonella enterica subsp. enterica serovar typhimurium, s9, 72 h
# [2] = Toxicity in Kunming mouse infected with Staphylococcus aureus ATCC 25923 assessed as normal alveolar size and morphology at 20 to 40 mg/kg, iv measured after 1 hr by hematoxylin and eosin staining based microscopic analysis; assay type: organism-based; conditions: in vivo, dose 20-40 mg/kg
# [3] = Toxicity in Kunming mouse infected with Staphylococcus aureus ATCC 25923 assessed as intact lung tissue structure at 20 to 40 mg/kg, iv measured after 1 hr by hematoxylin and eosin staining based microscopic analysis; assay type: organism-based; conditions: in vivo, dose 20-40 mg/kg
# [4] = Toxicity in Kunming mouse infected with Staphylococcus aureus ATCC 25923 assessed as appearance of pink and spongy lungs at 20 to 40 mg/kg, iv measured after 1 hr by hematoxylin and eosin staining based microscopic analysis; assay type: organism-based; conditions: in vivo, dose 20-40 mg/kg
# Staphylococcus aureus [5] = assay: Antibacterial activity against Staphylococcus aureus ATCC 25923 infected in kunming mouse assessed as reduction in viable pathogens at 20 mg/kg, iv measured after 1 hr; assay type: functional, organism-based
# Staphylococcus aureus [6] = assay: Antibacterial activity against Staphylococcus aureus ATCC 29213 incubated for 16 to 20 hrs using 10^3 CFU/ml bacterial inoculum by broth microdilution method; assay type: functional; conditions: time 16-20 hrs
# Escherichia coli [7] = assay: Antibacterial activity against Escherichia coli ATCC 25922 incubated for 16 to 20 hrs by broth microdilution method; assay type: functional; conditions: time 16-20 hrs
# Enterococcus faecium = assay: Antibacterial activity against Enterococcus faecium incubated for 16 to 20 hrs by broth microdilution method; assay type: functional; conditions: time 16-20 hrs
# [8] = tested on: Streptococcus dysgalactiae; assay: Antibacterial activity against Streptococcus dysgalactiae incubated for 16 to 20 hrs by broth microdilution method; assay type: functional; conditions: time 16-20 hrs
# Escherichia coli [9] = assay: Bactericidal activity against Escherichia coli ATCC 25922 incubated for 20 to 24 hrs by CLSI based analysis; assay type: functional; conditions: time 20-24 hrs
# Escherichia coli [10] = assay: Antibacterial activity against Escherichia coli ATCC 25922 at pH 8.2 incubated for 16 to 20 hrs by broth microdilution method; assay type: functional; conditions: time 16-20 hrs
# Escherichia coli [11] = assay: Antibacterial activity against Escherichia coli ATCC 25922 at pH 8.4 incubated for 16 to 20 hrs by broth microdilution method; assay type: functional; conditions: time 16-20 hrs
# Escherichia coli [12] = assay: Antibacterial activity against Escherichia coli ATCC 25922 at pH 8.6 incubated for 16 to 20 hrs by broth microdilution method; assay type: functional; conditions: time 16-20 hrs
# Staphylococcus aureus [13] = assay: Antibacterial activity against Staphylococcus aureus ATCC 29213 at pH 6.8 incubated for 16 to 20 hrs by broth microdilution method; assay type: functional; conditions: time 16-20 hrs
# Staphylococcus aureus [14] = assay: Antibacterial activity against Staphylococcus aureus ATCC 29213 at pH 7.2 incubated for 16 to 20 hrs by broth microdilution method; assay type: functional; conditions: time 16-20 hrs
# Staphylococcus aureus [15] = assay: Antibacterial activity against Staphylococcus aureus ATCC 29213 at pH 8.6 incubated for 16 to 20 hrs by broth microdilution method; assay type: functional; conditions: time 16-20 hrs
# Escherichia coli [16] = assay: Antibacterial activity against Escherichia coli ATCC 25922 incubated for 16 to 20 hrs in presence of 5% foetal bovine serum by broth microdilution method; assay type: functional; conditions: time 16-20 hrs
# Staphylococcus aureus [17] = assay: Antibacterial activity against Staphylococcus aureus ATCC 29213 at pH 8.6 incubated for 16 to 20 hrs in presence of 10% foetal bovine serum by broth microdilution method; assay type: functional; conditions: time 16-20 hrs
# Staphylococcus aureus [18] = assay: Antibacterial activity against Staphylococcus aureus ATCC 29213 at pH 8.6 incubated for 16 to 20 hrs in presence of 25% foetal bovine serum by broth microdilution method; assay type: functional; conditions: time 16-20 hrs
# [19] = Genotoxicity in Salmonella typhimurium TA100 assessed as number of revertants at 4x10^-5 mg/plate incubated for 72 hrs in absence of liver S9 fraction by Ames test (reference value: 221.67 +/- 15.57); assay type: toxicity; conditions: salmonella enterica subsp. enterica serovar typhimurium, s9, 72 h
# [20] = Genotoxicity in Salmonella typhimurium TA100 assessed as number of revertants at 8x10^-6 mg/plate incubated for 72 hrs in absence of liver S9 fraction by Ames test (reference value: 221.67 +/- 15.57); assay type: toxicity; conditions: salmonella enterica subsp. enterica serovar typhimurium, s9, 72 h
# [21] = Genotoxicity in Salmonella typhimurium TA100 assessed as number of revertants at 2x10^-4 mg/plate incubated for 72 hrs in presence of liver S9 fraction by Ames test (reference value: 204.33 +/- 8.14); assay type: toxicity, subcellular; conditions: salmonella enterica subsp. enterica serovar typhimurium, s9, 72 h
# [22] = Genotoxicity in Salmonella typhimurium TA100 assessed as number of revertants at 8x10^-6 mg/plate incubated for 72 hrs in presence of liver S9 fraction by Ames test (reference value: 204.33 +/- 8.14); assay type: toxicity, subcellular; conditions: salmonella enterica subsp. enterica serovar typhimurium, s9, 72 h
# [23] = Genotoxicity in Salmonella typhimurium TA100 assessed as number of revertants at 1.6x10^-6 mg/plate incubated for 72 hrs in presence of liver S9 fraction by Ames test (reference value: 204.33 +/- 8.14); assay type: toxicity, subcellular; conditions: salmonella enterica subsp. enterica serovar typhimurium, s9, 72 h
# [24] = Genotoxicity in Salmonella typhimurium TA102 assessed as number of revertants at 1x10^-3 mg/plate incubated for 72 hrs in presence of liver S9 fraction by Ames test (reference value: 465.33 +/- 18.04); assay type: toxicity, subcellular; conditions: salmonella enterica subsp. enterica serovar typhimurium, s9, 72 h
# [25] = Genotoxicity in Salmonella typhimurium TA102 assessed as number of revertants at 4x10^-5 mg/plate incubated for 72 hrs in presence of liver S9 fraction by Ames test (reference value: 465.33 +/- 18.04); assay type: toxicity, subcellular; conditions: salmonella enterica subsp. enterica serovar typhimurium, s9, 72 h
# [26] = Genotoxicity in Salmonella typhimurium TA102 assessed as number of revertants at 8x10^-6 mg/plate incubated for 72 hrs in presence of liver S9 fraction by Ames test (reference value: 465.33 +/- 18.04); assay type: toxicity, subcellular; conditions: salmonella enterica subsp. enterica serovar typhimurium, s9, 72 h
# [27] = Genotoxicity in Salmonella typhimurium TA1535 assessed as number of revertants at 1x10^-3 mg/plate incubated for 72 hrs in absence of liver S9 fraction by Ames test (reference value: 14.33 +/- 0.58); assay type: toxicity; conditions: salmonella enterica subsp. enterica serovar typhimurium, s9, 72 h
# [28] = Genotoxicity in Salmonella typhimurium TA1535 assessed as number of revertants at 4x10^-5 mg/plate incubated for 72 hrs in absence of liver S9 fraction by Ames test (reference value: 14.33 +/- 0.58); assay type: toxicity; conditions: salmonella enterica subsp. enterica serovar typhimurium, s9, 72 h
# [29] = Genotoxicity in Salmonella typhimurium TA1535 assessed as number of revertants at 1x10^-3 mg/plate incubated for 72 hrs in presence of liver S9 fraction by Ames test (reference value: 15.33 +/- 2.52); assay type: toxicity, subcellular; conditions: salmonella enterica subsp. enterica serovar typhimurium, s9, 72 h
# [30] = Genotoxicity in Salmonella typhimurium TA1535 assessed as number of revertants at 8x10^-6 mg/plate incubated for 72 hrs in presence of liver S9 fraction by Ames test (reference value: 15.33 +/- 2.52); assay type: toxicity, subcellular; conditions: salmonella enterica subsp. enterica serovar typhimurium, s9, 72 h
# [31] = Genotoxicity in Salmonella typhimurium TA1535 assessed as number of revertants at 1.6x10^-6 mg/plate incubated for 72 hrs in presence of liver S9 fraction by Ames test (reference value: 15.33 +/- 2.52); assay type: toxicity, subcellular; conditions: salmonella enterica subsp. enterica serovar typhimurium, s9, 72 h
# [32] = Genotoxicity in Salmonella typhimurium TA1537 assessed as number of revertants at 4x10^-5 mg/plate incubated for 72 hrs in absence of liver S9 fraction by Ames test (reference value: 22.67 +/- 2.52); assay type: toxicity; conditions: salmonella enterica subsp. enterica serovar typhimurium, s9, 72 h
# [33] = Genotoxicity in Salmonella typhimurium TA1537 assessed as number of revertants at 1.6x10^-6 mg/plate incubated for 72 hrs in presence of liver S9 fraction by Ames test (reference value: 20 +/- 5); assay type: toxicity, subcellular; conditions: salmonella enterica subsp. enterica serovar typhimurium, s9, 72 h
smiles,measurement,setting,value
CC[C@H]1OC(=O)C[C@@H](O)[C@H](C)[C@@H](O[C@@H]2O[C@H](C)[C@@H](O)[C@H](N(C)C)[C@H]2O)[C@@H](CCN(C)Cc2cn(-c3cnc4ccccc4c3)nn2)C[C@@H](C)C(=O)/C=C/C(C)=C/[C@@H]1CN1CCCCCC1,Activity,[1],61.33
same,Activity,[2],Non-Toxic
same,Activity,[3],Non-Toxic
same,Activity,[4],Non-Toxic
same,Activity,Staphylococcus aureus [5],Active
same,MIC,Staphylococcus aureus [6],0.0625 µg/mL
same,MIC,Escherichia coli [7],1 µg/mL
same,MIC,Enterococcus faecium,1 µg/mL
same,MIC,[8],0.25 µg/mL
same,MBC,Escherichia coli [9],2 µg/mL
same,MIC,Escherichia coli [10],0.25 µg/mL
same,MIC,Escherichia coli [11],0.25 µg/mL
same,MIC,Escherichia coli [12],0.25 µg/mL
same,MIC,Staphylococcus aureus [13],4 µg/mL
same,MIC,Staphylococcus aureus [14],0.5 µg/mL
same,MIC,Staphylococcus aureus [15],≤ 0.0625 µg/mL
same,MIC,Escherichia coli [16],1 µg/mL
same,MIC,Staphylococcus aureus [17],0.5 µg/mL
same,MIC,Staphylococcus aureus [18],1 µg/mL
same,Activity,[19],201.67
same,Activity,[20],226
same,Activity,[21],220.67
same,Activity,[22],167
same,Activity,[23],162.67
same,Activity,[24],449.33
same,Activity,[25],433.33
same,Activity,[26],466.67
same,Activity,[27],5
same,Activity,[28],6.33
same,Activity,[29],11
same,Activity,[30],13.67
same,Activity,[31],16.33
same,Activity,[32],19.67
same,Activity,[33],15
